The source of these data is patent publication US11634458B2, “Peptides and compositions for use in cosmetics and medicine” (LIPOTRUE, S.L., priority 2018, dated 2023).

For experiment [1], the system named is human skeletal muscle myocytes. Put plainly: Gene expression modulation in skeletal muscle human myocytes (RTqPCR contractility gene panel). It counts as cell-based. As to conditions: vs basal control. As to the method:
Said peptides were tested to evaluate their capacity to modulate the expression of several genes related with muscle contraction and relaxation in human skeletal muscle myocytes (Lodish H, Berk A, Zipursky S L, et al. (2000), Molecular Cell Biology, 4th edition; Section 18.3 Myosin: The Actin Motor Protein, Nueva York, W. H. Freeman; Kuo, I Y, & Ehrlich, B E (2015), Signaling in Muscle Contraction, Cold Spring Harbor Perspectives in Biology, 7(2); RAPSN receptor associated protein of the synapse [Homo sapiens (human)], Gene ID in NCBI 5913; Blake D J, Tinsley J M, Davies K E (1996), Utrophin: a structural and functional comparison to dystrophin, Brain Pathol., 6(1):37-47; Barik A, Lu Y, Sathyamurthy A, et.al. (2014), LRP4Is Critical for Neuromuscular Junction Maintenance, The Journal of Neuroscience, 34(42), 13892-13905; Kim N, Stiegler A L, Cameron T O, Hallock P T, et.al. (2008), Lrp4 is a Receptor for Agrin and Forms a Complex with MuSK, Cell, 135(2), 334-342; Mahavadi S, Nalli A, Kumar D, et.al. (2014), Increased expression of caveolin-1 is associated with upregulation of the RhoA/Rho kinase pathway and smooth muscle contraction in diabetes (1110.11), The FASEB Journal, 28:1_supplement)). To that end, a contractility smart data gene panel was designed. Said contractility smart data gene panel analyses the expression of the genes related with muscular contraction and relaxation included in table 5.
Briefly, human skeletal muscle myoblasts were seeded in duplicate in 12-well culture plates at a density of 1×10^5 cells/well and maintained at standard culture conditions (37° C., 95% humidity, 5% CO2) for 48-72h. Myoblast differentiation to myocyte was then induced with specific differentiation media (SKM-D medium+1% Antibiotic-Antimycotic) and monitored for 7 more days. Differentiated cells were treated with 0.05 mg/mL of peptide Ac-SEQ ID NO: 5-NH2; or with 0.1 mg/mL of peptide Ac-SEQ ID NO: 10-NH2 for 24 hours; or with 0.05 and 0.5 mg/mL of peptide Ac-SEQ ID NO: 8-NH2 for 6h; or with 0.5 mg/mL of peptide Ac-SEQ ID NO: 8-NH2 for 24 h. Untreated cells were used as basal control. Cells were then lysed for RNA extraction with a RNA purification commercial kit following manufacturer instructions (RNeasy mini kit, Qiagen, Netherlands). RNA was then quantified by nanodrop, adjusted in concentration and processed for retrotranscription to cDNA using a commercially available kit (High-Capacity cDNA Reverse Transcription kit, Thermofisher Scientific, USA). Resulting cDNA was used to perform a RTqPCR (Real Time Quantitative Polymerase Chain Reaction) using taqman technology and a panel of probes designed to target the specific genes related to muscle contractility mentioned in table 4.
Background: Quantitative PCR measures a nucleic acid by following its amplification.

The test system of another experiment is SH-SY5Y cells. Briefly: Exocytosis levels and delay (fluorescent exocytosis reporter). As to conditions: 0.01 mg/mL, 1 hour, PMA + ionomycin, vs non-treated cells. It counts as cell-based, human. As to the method:
The potential of said peptide Ac-SEQ ID NO: 8-NH2 to modulate the exocytosis of vesicles containing neurotransmitters from a neuroblastoma cell line was evaluated in vitro using SH-SY5Y cells, by fluorescence imaging using a Zeiss axiovert 200 inverted epifluorescence microscope with a 20× objective and a Xenon lamp.
SH-SY5Y cells (Sigma, USA) were cultured in T25 flasks in supplemented medium (DMEM/F12, Gibco, USA). Above 90% confluence, cells were trypsinized with 1 ml of 0.5% (v/v) Trypsin-EDTA. Next, 5 mL of said supplemented medium was added and cell concentration determined. Cells were seeded onto polyLysine-coated 12 mm-treated coverslips in 24 well-plates at 15×10^4 cells/well in supplemented medium (Gibco, USA) and incubated at regular conditions (37° C., 5% CO2). After 24 h cell seeding, cells were transfected with exocytosis reporter using Lipofectamine™ 3000 (Invitrogen, USA) following manufacturer's instructions. Reporter construct contained fusion protein made up of intraluminal-specific proteins and a pH-sensitive fluorescent protein.
For exocytosis monitorization, after 48 h of protein expression, cells were incubated with 0.01 mg/mL of Ac-SEQ ID NO: 8-NH2 peptide or 1 mg/mL of the benchmark acetyl hexapeptide-8 for 1 h at 37° C. and 5% CO2. Non-treated cells were used as basal control. […] Fluorescence imaging was done for the last 10 min of the stimulation protocol. Fluorescence signal of exocytosis reporter was monitored employing 483-512 nm excitation-filter and 525-530 nm emission-filter. […]
Non-treated cells were assayed in N=4 independent experiments with n=16 coverslips (483 cells measured), acetyl hexapeptide-8-treated cells in N=3 independent experiments with n=10 coverslips (328 cells measured) and Ac-SEQ ID NO: 8-NH2-treated cells in N=3 independent experiments with n=8 coverslips (240 cells measured). Cells were selected to individually monitor fluorescence intensity and time-course. Fluorescence peak evoked by ionomycin addition was used to quantify exocytosis by calculating the Area under the curve (AUC) using GraphPad software. Two parameters were defined and analyzed: • Exocytosis levels: For individual cells, total peak area was obtained from AUC analysis and was normalized by the baseline that was defined as fluorescence intensity 3-cycles before lonomycin injection. • Exocytosis delay: For individual cells, response time (min) was obtained from AUC analysis as time frame between lonomycin injection (Y) and initiation of peak (firstX).
Fluorescence values were further normalized as percentage change to non-treated cells on each experiment as: (exocytosis level of treated cells/exocytosis levels non-treated cells)×100 and (response time of treated cells/response time of non-treated cells)×100. […]

For the substance “Ac-His-Ala-Leu-Arg-Phe-Trp-NH2 [Ac-SEQ ID NO: 8-NH2]”, in experiment [1] (0.05 mg/mL, 6 hours), the CACNB1 gene expression entry was “downregulation”, the LRP4 gene expression result was “downregulation”, the MYH1 gene expression entry is “downregulation” and the UTRN gene expression entry was “downregulation”. In addition, in experiment [1] (0.5 mg/mL, 6 hours), the ACTA1 gene expression entry is on record as “downregulation”, the CALM3 gene expression entry is on record as “downregulation”, the CAV1 gene expression result is “downregulation” and the SCN3A gene expression result is on record as “downregulation”. Besides, the TNNC1 gene expression entry in experiment [1] (0.5 mg/mL, 6 hours) is given as “downregulation”. Also, in experiment [1] (0.5 mg/mL, 24 hours), the ATP2A gene expression result is “upregulation” and the RAPSN gene expression entry was “downregulation”. In addition, in the experiment with SH-SY5Y cells, the “change of exocytosis levels” value was −14% and the “exocytosis response time delay” value is reported as 24%.
